According to patent US10294212B2 (CURADEV PHARMA PRIVATE LTD., priority 2013, dated 2019):
pIC50: −log10 of the molar value.

Experiments:
[1] = target: Human indoleamine 2,3-dioxygenase1 (hIDO1) (Homo sapiens (Human), UniProt P14902); assay: In-vitro IDO1 enzyme assay (conversion of L-tryptophan to KYN); type: biochemical; details: read-out: IC50 (IDO1) Enz
Source text: Human indoleamine 2,3-dioxygenasel (hIDO1) catalyzes the oxidative cleavage of the pyrrole ring of the indole nucleus of tryptophan to yield N-formylkynurenine which can be converted to kynurenine (KYN) by deformylation. hIDO1 with an N-terminal His tag, expressed and purified from E. coli cells was procured from either Enzo LifeScienccs, NY, USA). Unless otherwise stated, all materials were procured from Sigma Aldrich, Mo., USA.
The assay monitoring the conversion of L-tryptophan to KYN was carried out as follows. hIDO1 (10 nM) was incubated with tryptophan (30 μM) in the presence of ascorbic acid (20 mM), methylene blue (10 μM) and catalase (100 μg/mL) in potassium phosphate buffer (50 mM; pH 6.5) at 37C for 30 min. The reaction was terminated with 30% trichloroacetic acid (TCA) and further incubated at 65C for 15 min to fully convert N-formylkynurenine to KYN. The reaction mixture was then centrifuged to remove sediments and the KYN in the supernatant was estimated by UV-visible absorption spectroscopy at 360 nm using a Waters HPLC system fitted with a C-18 column or by LC/MS/MS. See, Sono, 1980, J. Biol. Chem., 255:1339-1345, which is herein incorporated by reference.
(§1) Percent inhibition at each concentration of test compounds was determined by estimating the decrease in KYN with reference to the reaction control with 1% DMSO vehicle. Data were analyzed using nonlinear regression to generate IC50 values using Graph Pad Prism® 5.

[2] = target: Human TDO (hTDO)-transfected CHO-K1 cells (Homo sapiens (Human), UniProt P48775); assay: CHO-K1 cell based TDO assay; details: hTDO cellular assay
Experimental: Human TDO (hTDO)-transfected CHO-K1 cells were used to identify test compounds that inhibit TDO activity and reduce Kynurenine production. CHO-K1 cells (ATCC) were cultured in DMEM supplemented with sodium bicarbonate (2.1 g/L), HEPES (4.1 g/L), L-glutamine (2 mM), non-essential amino acid (84 mg/L) and fetal bovine serum (10%) and maintained at 95% humidity and 5% CO2 in a 37° C. incubator. The TDO gene (TDO2) (Accession number NM_005651.1) was purchased from Origene (USA) and stably expressed in CHO-Kl cells using the expression vector pcDNA4/Myc-HisB Hygro (Life Technologies, USA). TDO-expressing clones were identified based on the kynurenine production by the cells. Expanded clones were used for assay as described below. Unless otherwise stated, all materials were procured from Sigma.
hTDO transfected CHO-K1 cells (0.05 million/well) were seeded in a 96-well plate and maintained overnight in DMEM containing 10% FBS (200 μL) at 95% humidity and 5% CO2 in a 37° C. incubator. The following day, cells were washed and incubated with test compounds (typically 31 μM to 10 nM, final volume 150 μL) in Hanks Balanced Salt Solution (HBSS) containing 80 μM L-tryptophan for 2 hours. Supernatant (150 μL) from the cells was treated with 30% TCA ([…]) to precipitate proteins. Supernatants were further incubated at 65° C. for 15 min to convert N-formylkynurenine to kynurenine. KYN in the supernatant was measured by LC/MS/MS using an API4000 mass spectrometer (Applied Biosystems) coupled to a Shimadzu Prominence LC system fitted with a C18 column.
Percent inhibition of the test compounds was determined by measuring the decrease in KYN as compared to the reaction control (DMSO vehicle). IC50 values were calculated using Graph Pad Prism® 5 as described above.

IDO1 in HeLa cells = IDO1 in HeLa cells (Homo sapiens (Human), UniProt P14902); assay: HeLa cell based IDO1 assay (IFNγ-induced, KYN in supernatant)
Experimental: HeLa cells were obtained from ATCC and maintained in DMEM supplemented with sodium bicarbonate (2.1 g/L), HEPES (4.1 g/L), L-glutamine (2 mM), non-essential amino acid (84 mg/L) and fetal bovine serum (10% FBS) and maintained at 95% humidity and 5% CO2 in a 37° C. incubator. Unless otherwise stated, all materials were procured from Sigma. Upon incubation with gamma-interferon (IFNγ ), HeLa cells express IDO1, which catalyzes the formation of N-formyl kynurenine from tryptophan present in growth medium. The assay was performed as follows:
Cells were plated in medium (300 μL) at a density of 0.1 million per well of a 48 well plate and hIDO1 was induced by overnight treatment with IFNγ (50 ng/mL) (Peprotech, USA). The following day, cells were washed to remove IFNγ and were incubated with specific concentrations of test compounds (typically 10 μM to 1 nM, final volume 300 μL) in Hanks Balanced Salt Solution (HBSS) containing 80 μM L-tryptophan. Following incubation, supernatant (150 μL) was transferred to a 96 well plate into which 30%TCA (304) was added and the contents further incubated at 65° C. for 15 min to fully convert N-formylkynurenine to kynurenine. The reaction mixture was then centrifuged to remove sediments and the KYN in the supernatant was estimated by UV-visible absorption spectroscopy at 360 nm using a Waters HPLC system fitted with a C-18 column. (Xiangdong Liu et al. Blood 2010, Vol-117, 3520-30; Sono described above).
as §1

Chain of Human indoleamine 2,3-dioxygenase1 (hIDO1) (P14902 whole entry): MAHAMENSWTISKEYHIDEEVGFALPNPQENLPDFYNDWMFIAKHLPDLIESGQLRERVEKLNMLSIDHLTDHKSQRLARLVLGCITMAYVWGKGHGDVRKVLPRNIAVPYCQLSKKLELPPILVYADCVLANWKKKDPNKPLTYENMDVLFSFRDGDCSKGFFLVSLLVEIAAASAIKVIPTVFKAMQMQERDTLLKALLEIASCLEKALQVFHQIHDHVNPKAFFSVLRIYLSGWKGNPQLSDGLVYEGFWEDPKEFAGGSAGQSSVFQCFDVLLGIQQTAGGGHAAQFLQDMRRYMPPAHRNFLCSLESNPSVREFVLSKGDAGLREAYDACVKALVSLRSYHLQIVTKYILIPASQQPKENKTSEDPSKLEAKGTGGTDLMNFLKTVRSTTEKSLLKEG
Chain of IDO1 in HeLa cells (P14902 whole entry): as above
Chain of Human TDO (hTDO)-transfected CHO-K1 cells (P48775 whole entry): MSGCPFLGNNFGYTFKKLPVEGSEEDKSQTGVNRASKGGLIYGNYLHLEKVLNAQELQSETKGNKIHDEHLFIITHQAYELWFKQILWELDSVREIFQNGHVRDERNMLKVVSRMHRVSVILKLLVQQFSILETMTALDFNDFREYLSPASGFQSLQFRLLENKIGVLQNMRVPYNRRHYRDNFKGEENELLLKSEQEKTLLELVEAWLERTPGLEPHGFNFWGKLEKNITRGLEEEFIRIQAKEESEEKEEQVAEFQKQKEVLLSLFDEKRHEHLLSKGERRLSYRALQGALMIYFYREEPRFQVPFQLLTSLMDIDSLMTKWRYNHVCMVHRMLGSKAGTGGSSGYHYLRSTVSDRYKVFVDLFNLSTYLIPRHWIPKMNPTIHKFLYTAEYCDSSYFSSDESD

SMILES | pIC50 [1] | pIC50 [2] | pIC50 (IDO1 in HeLa cells)
Nc1sc2ccccc2c1Nc1ccc(Br)c(C(F)(F)F)c1 [Compound 126, N^3-(4-Bromo-3-(trifluoromethyl)phenyl)benzo[b]thiophene-2,3-diamine] | 6.00 to 6.70 | < 5.70 | 6.00 to 6.70
CCCc1nccc2c(Nc3ccc(F)c(C(F)(F)F)c3)c(N)oc12 [Compound 79, N^3-(4-Fluoro-3-(trifluoromethyl)phenyl)-7-propylfuro[2,3-c]pyridine-2,3-diamine] | > 6.70 | 5.70 to 6.30 | > 6.70
Nc1oc2cnccc2c1Nc1ccc(F)cc1 [Compound 5, N^3-(4-Fluorophenyl)furo[2,3-c]pyridine-2,3-diamine] | 6.00 to 6.70 | 5.70 to 6.30 | > 6.70
COc1ccccc1-c1nccc2c(Nc3ccc(F)c(Cl)c3)c(N)oc12 [Compound 98, N^3-(3-Chloro-4-fluorophenyl)-7-(2-methoxyphenyl)furo[2,3-c]pyridine-2,3-diamine] | > 6.70 | 5.70 to 6.30 | > 6.70
Cc1cc(-c2nccc3c(Nc4cccc(Cl)c4F)c(N)oc23)ccn1 [Compound 264, N^3-(3-Chloro-2-fluorophenyl)-7-(2-methylpyridin-4-yl)furo[2,3-c]pyridine-2,3-diamine] | 6.00 to 6.70 | < 5.70 | > 6.70
Nc1oc2cnccc2c1Nc1cccc(C(F)F)c1 [Compound 65, N^3-(3-(Difluoromethyl)phenyl)furo[2,3-c]pyridine-2,3-diamine] | > 6.70 | 5.70 to 6.30 | > 6.70
COc1cc2c(Nc3ccc(F)c(Cl)c3)c(N)oc2c(I)n1 [Compound 167, N^3-(3-Chloro-4-fluorophenyl)-7-iodo-5-methoxyfuro[2,3-c]pyridine-2,3-diamine] | > 6.70 | < 5.70 | > 6.70
C#Cc1cccc(Nc2c(N)oc3c(C)nccc23)c1 [Compound 93, N^3-(3-ethynylphenyl)-7-methylfuro[2,3-c]pyridine-2,3-diamine] | 6.00 to 6.70 | 5.70 to 6.30 | > 6.70
Nc1oc2cnccc2c1Nc1cc(F)c(F)c(Br)c1 [Compound 22, N^3-(3-Bromo-4,5-difluorophenyl)furo[2,3-c]pyridine-2,3-diamine] | < 6.00 | < 5.70 | 6.00 to 6.70
Cc1ncc(C)c2c(Nc3ccc(F)c(Cl)c3)c(N)oc12 [Compound 72, N^3-(3-chloro-4-fluorophenyl)-4,7-dimethylfuro[2,3-c]pyridine-2,3-diamine] | 6.00 to 6.70 | 5.70 to 6.30 | 6.00 to 6.70
C#Cc1cccc(Nc2c(N)oc3c(-c4ccccc4)nccc23)c1 [Compound 92, N^3-(3-Ethynylphenyl)-7-phenylfuro[2,3-c]pyridine-2,3-diamine] | > 6.70 | – | > 6.70
N#Cc1ccc2c(Nc3ccc(F)c(Cl)c3)c(N)oc2c1 [Compound 112, 2-Amino-3-((3-chloro-4-fluorophenyl)amino)benzofuran-6-carbonitrile] | > 6.70 | – | > 6.70
Nc1oc2c(-c3ccc(Cl)cc3)nccc2c1Nc1ccc(F)c(Cl)c1 [Compound 91, N^3-(3-Chloro-4-fluorophenyl)-7-(4-chlorophenyl)furo[2,3-c]pyridine-2,3-diamine] | > 6.70 | – | > 6.70
Nc1oc2c(Cc3ccccc3)nccc2c1Nc1ccc(F)c(Cl)c1 [Compound 86, 7-Benzyl-N^3-(3-chloro-4-fluorophenyl)furo[2,3-c]pyridine-2,3-diamine] | > 6.70 | – | > 6.70
Cc1cccc(Nc2c(N)oc3cnccc23)c1 [Compound 48, N^3-(m-tolyl)Furo[2,3-c]pyridine-2,3-diamine] | > 6.70 | – | > 6.70
COc1ccc(-c2nccc3c(Nc4ccc(F)c(Cl)c4)c(N)oc23)cc1 [Compound 101, N^3-(3-Chloro-4-fluorophenyl)-7-(4-methoxyphenyl)furo[2,3-c]pyridine-2,3-diamine] | > 6.70 | – | > 6.70

Continued, values first:

pIC50 [1] | pIC50 [2] | pIC50 (IDO1 in HeLa cells) | SMILES
> 6.70 | > 6.30 | > 6.70 | Nc1oc2c(-c3cccc4ccccc34)nccc2c1Nc1ccc(F)c(Cl)c1 [Compound 204, N^3-(3-Chloro-4-fluorophenyl)-7-(naphthalen-1-yl)furo[2,3-c]pyridine-2,3-diamine]
> 6.70 | > 6.30 | > 6.70 | Nc1oc2c(-c3ccncc3)nccc2c1Nc1ccc(F)cc1 [Compound 201, N^3-(4-Fluorophenyl)-7-(pyridin-4-yl)furo[2,3-c]pyridine-2,3-diamine]
> 6.70 | 5.70 to 6.30 | > 6.70 | Nc1oc2c(-c3ccncc3)nccc2c1Nc1cccc(C(F)(F)F)c1 [Compound 203, 7-(Pyridin-4-yl)-N^3-(3-(trifluoromethyl)phenyl)furo[2,3-c]pyridine-2,3-diamine]
> 6.70 | < 5.70 | 6.00 to 6.70 | CCCCCNC(=O)c1cc(-c2nccc3c(Nc4ccc(F)c(Cl)c4)c(N)oc23)ccn1 [Compound 275, 4-(2-Amino-3-((3-chloro-4-fluorophenyl)amino)furo[2,3-c]pyridin-7-yl)-N-pentylpicolinamide]
> 6.70 | 5.70 to 6.30 | > 6.70 | Nc1sc2ccccc2c1Nc1cccc(Br)c1 [Compound 230, N^3-(3-Bromophenyl)benzo[b]thiophene-2,3-diamine]
> 6.70 | > 6.30 | > 6.70 | Cc1cc(-c2nccc3c(Nc4ccc(F)c(F)c4)c(N)oc23)ccn1 [Compound 198, N^3-(3,4-Difluorophenyl)-7-(2-methylpyridin-4-yl)furo[2,3-c]pyridine-2,3-diamine]
> 6.70 | > 6.30 | > 6.70 | Nc1sc2ccccc2c1Nc1ccc(F)c(F)c1 [Compound 211, N^3-(3,4-Difluorophenyl)benzo[b]thiophene-2,3-diamine]
> 6.70 | – | > 6.70 | Nc1oc2c(-c3ccc(F)c(F)c3)nccc2c1Nc1ccc(F)c(Cl)c1 [Compound 170, N^3-(3-chloro-4-fluorophenyl)-7-(3,4-difluorophenyl)furo[2,3-c]pyridine-2,3-diamine]
> 6.70 | – | > 6.70 | COCCNC(=O)c1ccc(-c2nccc3c(Nc4ccc(F)c(Cl)c4)c(N)oc23)cc1 [Compound 169, 4-(2-Amino-3-((3-chloro-4-fluorophenyl)amino)furo[2,3-c]pyridin-7-yl)-N-(2-methoxyethyl)benzamide]
> 6.70 | – | > 6.70 | N#Cc1ccc(-c2cccc3c(Nc4ccc(F)c(Cl)c4)c(N)sc23)cc1 [Compound 212, 4-(2-Amino-3-((3-chloro-4-fluorophenyl)amino)benzo[b]thiophen-7-yl)benzonitrile]
